According to patent US20200046802A1, “THERAPEUTIC METHOD USING TOLEROGENIC PEPTIDES” (APITOPE INTERNATIONAL NV, priority 2017, published 2020):
Ends that are not written are not given here.

What was measured:
[1] = test system: subjects with Graves' disease; assay: Open label upward titration study of ATX-GD-59, safety; format: in vivo, human; settings: first 5 patients
Protocol: (§1) Safety and proof of principle study of ATX-GD-59 in male and female subjects with Graves' disease not currently treated with anti-thyroid therapy: An Open label study, with an upward titration over five dose levels administered by Intradermal injection.
(§2) There was an upward titration over five dose levels (injection(s) of 25, 50, 100, 400 and 800 μg) of ATX-GD-59 followed by injection(s) of 800 μg injected on five further occasions. All doses were based on the total peptide.
(§3) All doses were administered by intradermal injection at intervals of 14+/−3 days.
Subjects will be observed in the clinic for at least two hours after administration of the study drug and vital signs will be recorded at 15 minute intervals for the first hour and 30 minute intervals for the second hour. […]
Safety endpoints, which will be evaluated on an ongoing basis up to Week 22, are: • Injection site reactions as reported by the subjects in the diary card. • Occurrence of treatment related adverse events (Adverse Events), Serious Adverse Events, and laboratory abnormalities compared to baseline. • Results from the physical examination, and vital signs (reported on an ongoing basis and compared to baseline/screening). • Premature termination and reasons for premature termination from treatment and/or the study.

[2] = test system: subjects with Graves' disease; assay: Open label upward titration study of ATX-GD-59, TSHR antibody and free T3 levels; format: in vivo, human
Protocol: as §1, §2, §3
Criteria for Evaluation of the Secondary Objectives: • TSHR antibody levels. • Ratio of stimulatory vs inhibitory TSHR antibodies. • Free T3, free T4 and TSH serum levels.

How did the “safety data analysed by DMC” value [1] turn out when “ATX-GD-59: comprises the RNB-5D-K1 and RNB-9B peptides of SEQ ID NOs: 5 and 6; lyophilised equimolar mixture of two peptides (chain 1 KKKKYVSIDVTLQQLESHKKK; chain 2 GLKMFPDLTKVYSTD; not fully specified)” was run?
The value was “No safety issues were identified”.

And the “T3, % change from SD1 to W18” value ([2]; Subject 3101)?
Its value is 13.60%.

What about the “TRAb, % change from SD1 to W18” value ([2]; Subject 3101) of the same substance?
The value was 3.58%.

What about the “TSI, % change from SD1 to W18” value ([2]; Subject 3101) of the same substance?
The value was −30.32%.

What about the “T3, % change from SD1 to W18” value ([2]; Subject 3301) of the same substance?
The value was 21.4%.

What about the “TRAb, % change from SD1 to W18” value ([2]; Subject 3301) of the same substance?
Its value is 16.60%.

What about the “TSI, % change from SD1 to W18” value ([2]; Subject 3301) of the same substance?
The value was −4.48%.

What about the “T3, % change from SD1 to W18” value ([2]; Subject 3402) of the same substance?
Its value is −17.72%.

And the “TRAb, % change from SD1 to W18” value ([2]; Subject 3402)?
The value was −61.13%.

What about the “TSI, % change from SD1 to W18” value ([2]; Subject 3402) of the same substance?
Its value is −57.89%.

And the “T3, % change from SD1 to W18” value ([2]; Subject 3501)?
Its value is −22.39%.

And the “TRAb, % change from SD1 to W18” value ([2]; Subject 3501)?
Its value is −30.33%.

And the “TSI, % change from SD1 to W18” value ([2]; Subject 3501)?
Its value is −32.45%.

And the “T3, % change from SD1 to W18” value ([2]; Subject 3503)?
The value was −45.33%.

And the “TRAb, % change from SD1 to W18” value ([2]; Subject 3503)?
The value was −64.51%.

What about the “TSI, % change from SD1 to W18” value ([2]; Subject 3503) of the same substance?
The value was −61.71%.

What about the “stimulating TRAB levels (TSI)” value ([2]; first 5 subjects) of the same substance?
The value was “All subjects had decrease”.

What about the “subjects with decreases in T3 and TRAB” value ([2]; first 5 subjects) of the same substance?
The value was “Three of 5”.
